Patent US6525001B1, “Substituted pyrimidine and pyridine herbicides” (Mid-American Commercialization Corporation, priority 1997, dated 2003)

Assays:
Assay type in all cases: in vivo
Conditions in all cases: PREEMERGENCE
[1] = tested on: redroot pigweed (Amaranthus retroflexus); experiment: Test C; parameters: key: 0 was no effect; 100 was complete control
[2] = tested on: cotton (Gossypium hirsutum); experiment: Test C
[3] = tested on: eastern black nightshade (Solanum ptycanthum); experiment: Test C
[4] = tested on: arrowleaf sida (Sida rhombifolia); experiment: Test C; parameters: key: 0 was no effect; 100 was complete control
[5] = tested on: ivyleaf morningglory (Ipomoea hederacea); experiment: Test C; parameters: key: 0 was no effect; 100 was complete control
[6] = tested on: large crabgrass (Digitaria sanguinalis); experiment: Test E pre-/postemergence/post directed
Summary of the method: (§1)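 Greenhouse pots; compound in non-phytotoxic solvent with surfactant, sprayed preemergence within one day of planting, postemergence at two to four leaf stage (three to twenty cm), or post directed to plant base and soil. Visual injury rated 13 to 21 days after application, 0 (none) to 100 (complete control).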

[7] = tested on: Spanishneedles (Bidens bipinnata); experiment: Test E pre-/postemergence/post directed
Summary of the method: as §1

[8] = tested on: common ragweed (Ambrosia elatior); experiment: Test E pre-/postemergence/post directed
Summary of the method: as §1

[9] = tested on: alexandergrass (Brachiaria plantaginea); experiment: Test E pre-/postemergence/post directed
Summary of the method: as §1

[10] = tested on: johnson grass (Sorghum halepense); experiment: Test E pre-/postemergence/post directed
Summary of the method: as §1

[11] = tested on: bermudagrass (Cynodon dactylon); experiment: Test E pre-/postemergence/post directed
Summary of the method: as §1

[12] = tested on: surinam grass (Brachiaria decumbens); experiment: Test E pre-/postemergence/post directed
Summary of the method: as §1

[13] = tested on: sandbur (Cenchrus echinatus); experiment: Test E pre-/postemergence/post directed
Summary of the method: as §1

[14] = tested on: itchgrass (Rottboellia exaltata); experiment: Test E pre-/postemergence/post directed
Summary of the method: as §1

[15] = tested on: wild poinsettia (Euphorbia heterophylla); experiment: Test C
[16] = tested on: hairy beggarticks (Bidens pilosa); experiment: Test C; parameters: key: 0 was no effect; 100 was complete control
[17] = tested on: large crabgrass (Digitaria sanguinalis); experiment: Test C; parameters: key: 0 was no effect; 100 was complete control
[18] = tested on: barnyardgrass (Echinochloa crus-galli); experiment: Test C; parameters: key: 0 was no effect; 100 was complete control
[19] = tested on: giant foxtail (Setaria faberii); experiment: Test C; parameters: key: 0 was no effect; 100 was complete control
[20] = tested on: velvetleaf (Abutilon theophrasti); experiment: Test C
[21] = tested on: cocklebur (Xanthium strumarium); experiment: Test C; parameters: key: 0 was no effect; 100 was complete control

## Cc1cnc(-n2ccc(C(F)(F)F)n2)nc1Cc1cccc(OC(F)(F)F)c1 [Compound 42]
[1]; Rate 35 g/ha
  Plant response rating, Redroot pigweed: 100
[1]; Rate 70 g/ha
  Plant response rating, Redroot pigweed: 100
[1]; Rate 140 g/ha
  Plant response rating, Redroot pigweed: 100
[2]; Rate 35 g/ha
  Plant response rating, Cotton: 30
[2]; Rate 70 g/ha
  Plant response rating, Cotton: 60
[2]; Rate 140 g/ha
  Plant response rating, Cotton: 60
[3]; Rate 35 g/ha
  Plant response rating, E. blacknightsh: 90
[3]; Rate 70 g/ha
  Plant response rating, E. blacknightsh: 95
[3]; Rate 140 g/ha
  Plant response rating, E. blacknightsh: 95
[4]; Rate 35 g/ha
  Plant response rating, Arrowleaf sida: 95
[4]; Rate 70 g/ha
  Plant response rating, Arrowleaf sida: 95
[4]; Rate 140 g/ha
  Plant response rating, Arrowleaf sida: 100
[5]; Rate 35 g/ha
  Plant response rating, I. morningglory: 30
[5]; Rate 70 g/ha
  Plant response rating, I. morningglory: 70
[5]; Rate 140 g/ha
  Plant response rating, I. morningglory: 100
[6]; Rate 32 g/ha
  Plant response rating, Large crabgrass: 50
[6]; Rate 64 g/ha
  Plant response rating, Large crabgrass: 90
[7]; Rate 32 g/ha
  Plant response rating, Spanishneedles: 20
[7]; Rate 64 g/ha
  Plant response rating, Spanishneedles: 20
[7]; Rate 250 g/ha
  Plant response rating, Spanishneedles: 90
[8]; Rate 32 g/ha
  Plant response rating, Com. ragweed: 50
[8]; Rate 64 g/ha
  Plant response rating, Com. ragweed: 75
[8]; Rate 125 g/ha
  Plant response rating, Com. ragweed: 90
[8]; Rate 250 g/ha
  Plant response rating, Com. ragweed: 90
[9]; Rate 32 g/ha
  Plant response rating, Alexandergrass: 20
[9]; Rate 64 g/ha
  Plant response rating, Alexandergrass: 40
[9]; Rate 125 g/ha
  Plant response rating, Alexandergrass: 90
[9]; Rate 250 g/ha
  Plant response rating, Alexandergrass: 90
[10]; Rate 32 g/ha
  Plant response rating, Johnsongrass: 10
[10]; Rate 64 g/ha
  Plant response rating, Johnsongrass: 90
[10]; Rate 125 g/ha
  Plant response rating, Johnsongrass: 90
[10]; Rate 250 g/ha
  Plant response rating, Johnsongrass: 95
[11]; Rate 32 g/ha
  Plant response rating, Bermudagrass: 90
[11]; Rate 64 g/ha
  Plant response rating, Bermudagrass: 95
[11]; Rate 125 g/ha
  Plant response rating, Bermudagrass: 98
[11]; Rate 250 g/ha
  Plant response rating, Bermudagrass: 98
[12]; Rate 32 g/ha
  Plant response rating, Surinam grass: 40
[12]; Rate 64 g/ha
  Plant response rating, Surinam grass: 50
[13]; Rate 64 g/ha
  Plant response rating, Sandbur: 40
[13]; Rate 125 g/ha
  Plant response rating, Sandbur: 70
[13]; Rate 250 g/ha
  Plant response rating, Sandbur: 70
[14]; Rate 32 g/ha
  Plant response rating, Itchgrass: 35
[14]; Rate 64 g/ha
  Plant response rating, Itchgrass: 65
[14]; Rate 125 g/ha
  Plant response rating, Itchgrass: 80
[14]; Rate 250 g/ha
  Plant response rating, Itchgrass: 70
[15]; Rate 35 g/ha
  Plant response rating, Wild poinsettia: 25
[15]; Rate 70 g/ha
  Plant response rating, Wild poinsettia: 30
[15]; Rate 140 g/ha
  Plant response rating, Wild poinsettia: 85
[16]; Rate 35 g/ha
  Plant response rating, H. beggarticks: 0
[16]; Rate 140 g/ha
  Plant response rating, H. beggarticks: 90
[17]; Rate 35 g/ha
  Plant response rating, Large crabgrass: 80
[17]; Rate 70 g/ha
  Plant response rating, Large crabgrass: 100
[17]; Rate 140 g/ha
  Plant response rating, Large crabgrass: 100
[18]; Rate 35 g/ha
  Plant response rating, Barnyardgrass: 5
[18]; Rate 70 g/ha
  Plant response rating, Barnyardgrass: 10
[18]; Rate 140 g/ha
  Plant response rating, Barnyardgrass: 100
[19]; Rate 35 g/ha
  Plant response rating, Giant foxtail: 70
[19]; Rate 70 g/ha
  Plant response rating, Giant foxtail: 80
[19]; Rate 140 g/ha
  Plant response rating, Giant foxtail: 100
[20]; Rate 35 g/ha
  Plant response rating, Velvetleaf: 40
[20]; Rate 70 g/ha
  Plant response rating, Velvetleaf: 80
[20]; Rate 140 g/ha
  Plant response rating, Velvetleaf: 95
[21]; Rate 35 g/ha
  Plant response rating, Cocklebur: 0
[21]; Rate 140 g/ha
  Plant response rating, Cocklebur: 60
